Here are results for one compound from patent US20240058373A1, “FIBRE MIXTURE FOR YOUNG CHILDREN” (N.V. Nutricia, priority 2020, published 2024).

The subject of this test is standard human gut microbiota pool. Kind of test: i-screen fermentation of fibres by faecal microbiota: pH and SCFA/BCFA formation. In kind it is cell-based. As to conditions: after 24 h of fermentation in SIEM medium at 37° C., fibres 10 mg/ml. From the text: For studying fermentation of fibres by microbiota the i-screen platform was used, see Schuren et al., The i-screen: A Versatile Preclinical Platform for Gut Microbiota Studies, J Prob Health 2019 7:212. A standard human gut microbiota pool was used for the fermentation. This pool was established via fecal donations from 6 healthy volunteers (Caucasian individuals, age 25-60 years, no antibiotic use in the 3 months preceding the donation, self-assessment of health status). Before starting the i-screen fermentation with the test compounds, the standardized fecal pool was incubated in SIEM (standard ileal effluent medium) under anaerobic conditions overnight (37° C.; 300 rpm) in order to activate the bacteria.
The fibres were tested at a concentration of 10 mg/ml. All compounds were tested in triplicate.
The following conditions were applied: • 1 No added fibres, SIEM medium only • 2 Mixture of beta-galactooligosaccharides (Vivinal GOS, Friesland Campina), inulin (Orafti HP (Beneo-Orafti Orey) Beneo BE), resistant starch (Novelose 330 (Ingredion UK Ltd) and non-soluble soy polysaccharides, source Fibrim 2000 (DuPont/Danisco) in a weight ratio of 38:38:4:20, prior art MF4 • 3 Mixture of beta-galactooligosaccharides (Vivinal GOS, Friesland Campina), inulin (Orafti HP (Beneo-Orafti Orey) Beneo BE), resistant starch (Novelose 330 (Ingredion UK Ltd) and soluble soy polysaccharides, source Soyafibe-S-Ca100 (Fuji Oil Co, Ltd), in a weight ratio of 38:38:4:20, new MF4 • 4 Lactulose (Duphalac Lactulose, Solvay, the Netherlands)
After 24 hours of fermentation in SIEM medium at 37° C., samples were collected for pH measurements, DNA isolation and for metabolite analysis. The remaining material was stored at −20° C.
DNA was isolated as described by Ladirat et al. J Microbiol Meth 2013, 92(3), 387-397 with some minor adjustments: the samples were initially mixed with 300 μl lysis buffer (Agowa, Berlin, Germany), 500 μl zirconium beads (0.1 mm), and 500 μl phenol, before being introduced to a Bead Beater (BioSpec Products, Bartlesville, OK, USA) for 3 min. 16S amplicon sequencing DNA was analyzed by using 16S rDNA amplicon sequencing. The V4 hypervariable region was targeted. […] Amplicon quality and size were analyzed on a Fragment Analyzer (Advanced Analytical Technologies, Inc.). […] SCFA covering acetate, propionate, and n-butyrate and branched chain fatty acids (BCFA) covering iso-butyrate and iso-valerate were analyzed as described by as described by Van Nuenen Microbiology in Health and Disease 2003, 15: 137-144. […]
For the analysis of total lactate, material resulting from the i-screen fermentation was sampled and centrifuged at 4,000 g for 5 minutes. […] The D- and L-lactate were determined by the Arena 20XL analyser. […]

`OC[C@H]1O[C@@H](O[C@@H]2[C@@H](CO)OC(O)(CO)[C@H]2O)[C@H](O)[C@@H](O)[C@H]1O` (mixture of isomers) [lactulose, Lactulose]: the “Mean Butyrate” value was determined as 49.39 mM and the “Mean Propionate” value came to 6.61 mM. Where the note is “value (s.d.)”, the “Mean Acetate” value is recorded as 44.93 (1.40) mM and the “Mean Total SCFA” value is on record as 100.9 (2.67) mM.
